In patent US20250339415A1, “DISULFIDE COMPOUNDS AS MEDICAMENTS” (CYTACOAT AB, priority 2021, published 2025):
Where a name gives a salt, the structure may show the parent alone.

What was measured:
Format in all cases: cell-based
E. coli = experiment: Combination therapy: Fradiomycin with PDEA, visible growth; conditions: Fradiomycin 0 μg/ml
Procedure: (§1) Different concentrations of Fradiomycin in Mueller Hinton were prepared in 3 different concentrations of PDEA. E. coli and S. aureus were inoculated (10^5) and were incubated overnight. Readouts were “Clear” and “Foggy”.

S. aureus = experiment: as above; conditions: Fradiomycin 0 μg/ml
Procedure: as §1

Candida albicans = experiment: Minimum inhibitory concentration (MIC), visible growth, YPD broth
Procedure: (§2) • 1. Using a sterile inoculating loop, transfer bacteria/Candida albicans from frozen stock culture and streak them on a fresh LA plate. • 2. Incubate the plate at 37° C. overnight (o/n) (18-24 h).
(§3) • 1. Prepare bacterial culture by adding 20 ml Mueller Hinton broth (*) to a 250-ml Erlenmeyer flask with sidearm. • 2. Using a sterile inoculating loop, pick approximately 10 colonies from the o/n bacterial culture and transfer bacteria to the flask. • 3. Incubate the E-flask with bacteria on a rotating shaker at 37° C. until OD590=0.40. This OD should equal an approximate bacterial count of 1×10^8 cfu/ml (**) • This is measured using a colorimeter (or spectrophotometer). Set reference and press R (=reference) first, then measure the bacterial culture by pressing T (=test). • 4. At OD590 0.40, serially dilute the bacterial suspension 1:10 000 in Mueller Hinton broth to obtain a bacterial target concentration of 1×10^4 cfu/ml. Determine the initial inoculation by serially diluting 0.1 ml in 0.9 ml blanks of sterile PBS and plating 0.1 ml aliquots to LA plates, preferably. • 5. Different concentrations of the tested compound are prepared in 0.6-0.8 ml of the final dilution of bacterial suspension and placed in 2-ml test tubes. • 6. Incubate test tubes in an orbital shaker incubator at 37° C. for 24 h.
(§4) • 7. Analyze visible growth, i.e. “Foggy” or “Clear”. MIC is being defined as the interval between the highest “Foggy” and the lowest “Clear” concentration of the compound.
(*) When testing Candida albicans, Yeast extract Peptone Dextrose (YPD) broth is being used.
(**) For Candida albicans it is equal to 1×10^7
Different concentrations of PDEA were also prepared in Yeast extract Peptone Dextrose (YPD) broth. Candida albicans were inoculated to a concentration of 20 000 CFU/ml and incubated at 37° C. for 24 hours. Readouts were “Clear” and “Foggy”.
Different concentrations of the quaternary ammonium PDEA (Example 2) were also prepared in Yeast extract Peptone Dextrose (YPD) broth. Candida albicans were inoculated to a concentration of 20 000 CFU/ml and incubated at 37° C. for 24 hours. Readouts were “Clear” and “Foggy”.
Different concentrations of the Para position-PDEA” is (S)-4-pyridylthio cysteamine were also prepared in Yeast extract Peptone Dextrose (YPD) broth. Candida albicans were inoculated to a concentration of 20 000 CFU/ml and incubated at 37° C. for 24 hours. Readouts were “Clear” and “Foggy”.
Different concentrations of “Carboxylic acid PDEA” is 3-(2-Pyridyldithio)propanoic acid (CAS: 68617-64-1) were also prepared in Yeast extract Peptone Dextrose (YPD) broth. Candida albicans were inoculated to a concentration of 20 000 CFU/ml and incubated at 37° C. for 24 hours. Readouts were “Clear” and “Foggy”.

[1] = tested on: Klebsiella pneumoniae AO15200; experiment: Minimum inhibitory concentration (MIC), visible growth
Procedure: as §2, §3, §4
(§5) Different concentrations of PDEA (Example 1) in Mueller Hinton medium were prepared. Bacteria were inoculated to a concentration of 20 000 CFU/ml and incubated at 37° C. for 24 hours. Minimum inhibitory concentrations (MICs) were determined by analyzing visible growth, i.e., readouts were “Clear” and “Foggy”.
(§6) Different concentrations of the quaternary ammonium PDEA (Example 2) in Mueller Hinton medium were prepared. Bacteria were inoculated to a concentration of 20 000 CFU/ml and incubated at 37° C. for 24 hours. Minimum inhibitory concentrations (MICs) were determined by analyzing visible growth, i.e., readouts were “Clear” and “Foggy”.
(§7) Different concentrations of this compound in Mueller Hinton medium were prepared. Bacteria were inoculated to a concentration of 20 000 CFU/ml and incubated at 37° C. for 24 hours. Minimum inhibitory concentrations (MICs) were determined by analyzing visible growth, i.e., readouts were “Clear” and “Foggy”.
(§8) Different concentrations of this compound were prepared in Mueller Hinton broth. Bacteria were inoculated to a concentration of 20 000 CFU/ml and incubated at 37° C. for 24 hours. Minimum inhibitory concentrations (MICs) were determined by analyzing visible growth, i.e., readouts were “Clear” and “Foggy”.

[2] = tested on: Staphylococcus aureus B5381; experiment: as above
Procedure: as §2, §3, §4, §5, §6, §7, §8

Escherichia coli CFT073 = experiment: as above
Procedure: as §2, §3, §4, §5, §6, §7, §8

[3] = tested on: Staphylococcus epidermidis Se19 (Clinical Isolate, Jan Ingemar Falk); experiment: as above
Procedure: as §2, §3, §4, §5, §6, §7, §8

[4] = tested on: Pseudomonas aeruginosa PA02; experiment: as above
Procedure: as §2, §3, §4, §5, §6, §7, §8

[5] = tested on: Enterococcus faecium #11 (KI, Clinical Isolate); experiment: as above
Procedure: as §2, §3, §4, §5, §6, §7, §8

[6] = tested on: Enterococcus faecalis #28 (KI, Clinical Isolate); experiment: as above
Procedure: as §2, §3, §4, §5, §6, §7, §8

NCCSSc1ccccn1 [PDEA, 2-(Pyridyldithio)ethylamine (hydrochloride)]
50 to 100 µM: MIC ([1]; Klebsiella pneumoniae, AO15200, 24 h) | MIC (Escherichia coli CFT073; Escherichia coli, CFT073, 24 h)
100 to 200 µM: MIC ([2]; Staphylococcus aureus, B5381, 24 h) | MIC ([4]; Pseudomonas aeruginosa, PA02, 24 h) | MIC ([6]; Enterococcus faecalis, 24 h)
400 to 800 µM: MIC (Candida albicans; Candida albicans, 24 h)
25 to 50 µM: MIC ([3]; Staphylococcus epidermidis, 24 h) | MIC ([5]; Enterococcus faecium, 24 h)
Clear: visible growth readout (E. coli; PDEA 0.05 mM) | visible growth readout (Candida albicans; 0.8 mM) | visible growth readout (Candida albicans; 1.6 mM) | visible growth readout ([1]; 0.1 mM) | visible growth readout ([2]; 0.2 mM) | visible growth readout ([2]; 0.4 mM) | visible growth readout (Escherichia coli CFT073; 0.1 mM) | visible growth readout ([3]; 0.05 mM) | visible growth readout ([3]; 0.1 mM) | visible growth readout ([4]; 0.2 mM) | visible growth readout ([4]; 0.4 mM) | visible growth readout ([5]; 0.05 mM) | visible growth readout ([5]; 0.1 mM) | visible growth readout ([6]; 0.2 mM) | visible growth readout ([6]; 0.4 mM)
Foggy: visible growth readout (E. coli; PDEA 0.0125 mM) | visible growth readout (E. coli; PDEA 0.025 mM) | visible growth readout (S. aureus; PDEA 0.0125 mM) | visible growth readout (S. aureus; PDEA 0.025 mM) | visible growth readout (S. aureus; PDEA 0.05 mM) | visible growth readout (Candida albicans; 0.01 mM) | visible growth readout (Candida albicans; 0.025 mM) | visible growth readout (Candida albicans; 0.05 mM) | visible growth readout (Candida albicans; 0.1 mM) | visible growth readout (Candida albicans; 0.2 mM) | visible growth readout (Candida albicans; 0.4 mM) | visible growth readout ([1]; 0.01 mM) | visible growth readout ([1]; 0.025 mM) | visible growth readout ([1]; 0.05 mM) | visible growth readout ([2]; 0.05 mM) | visible growth readout ([2]; 0.1 mM) | visible growth readout (Escherichia coli CFT073; 0.01 mM) | visible growth readout (Escherichia coli CFT073; 0.025 mM) | visible growth readout (Escherichia coli CFT073; 0.05 mM) | visible growth readout ([3]; 0.01 mM) | visible growth readout ([3]; 0.025 mM) | visible growth readout ([4]; 0.05 mM) | visible growth readout ([4]; 0.1 mM) | visible growth readout ([5]; 0.01 mM) | visible growth readout ([5]; 0.025 mM) | visible growth readout ([6]; 0.05 mM) | visible growth readout ([6]; 0.1 mM)
